# In ChEMBL document CHEMBL4706534, “1,2,3-Triazole-containing hybrids with potential antibacterial activity against methicillin-resistant Staphylococcus aureus (MRSA)” (Eur J Med Chem, 2020):
# Columns and labels:
# Format in all cases: functional
# [1] = system: Staphylococcus aureus; assay: Antibacterial activity against methicillin-resistant Staphylococcus aureus ATCC 33591 incubated for 18 hrs
# [2] = system: Staphylococcus aureus; assay: Potency index, ratio of linezolid MIC to compound MIC for antibacterial activity against methicillin-resistant Staphylococcus aureus ATCC 33591
# [3] = system: Staphylococcus aureus; assay: Antibacterial activity against methicillin-susceptible Staphylococcus aureus ATCC 25923 incubated for 18 hrs
# [4] = system: Staphylococcus aureus; assay: Antibacterial activity against Methicillin-resistant Staphylococcus aureus 1 incubated for 16 hrs by agar dilution method
# [5] = system: Staphylococcus aureus; assay: Antibacterial activity against Methicillin-resistant Staphylococcus aureus 2 incubated for 16 hrs by agar dilution method
# [6] = system: Staphylococcus aureus; assay: Antibacterial activity against Staphylococcus aureus ATCC 25923 by CLSI-based broth microdilution method
# [7] = system: Staphylococcus aureus; assay: Resistance index, ratio of MIC for antibacterial activity against methicillin-resistant Staphylococcus aureus […] to MIC for antibacterial activity against methicillin-sensitive Staphylococcus aureus
# [8] = system: Staphylococcus aureus; assay: Antibacterial activity against Methicillin-resistant Staphylococcus aureus USA600 by CLSI-based microdilution method
# [9] = system: Staphylococcus aureus; assay: Antibacterial activity against Methicillin-resistant Staphylococcus aureus USA100 by CLSI-based microdilution method
# [10] = system: Staphylococcus aureus; assay: Antibacterial activity against Methicillin-resistant Staphylococcus aureus USA300 by CLSI-based microdilution method
# [11] = system: Staphylococcus aureus; assay: Antibacterial activity against Methicillin-resistant Staphylococcus aureus USA200 by CLSI-based microdilution method
# [12] = system: Staphylococcus aureus; assay: Antibacterial activity against wild type Methicillin-resistant Staphylococcus aureus by CLSI-based microdilution method
# [13] = system: Staphylococcus aureus; assay: Antibacterial activity against methicillin-resistant Staphylococcus aureus
# [14] = system: Staphylococcus aureus; assay: Antibacterial activity against Methicillin-resistant Staphylococcus aureus ATCC 33591 incubated for 20 hrs by broth two-fold dilution method
# [15] = system: Staphylococcus aureus; assay: Bactericidal activity against methicillin-resistant Staphylococcus aureus ATCC 33591 measured after 20 hrs
# [16] = system: Staphylococcus aureus; assay: Antibacterial activity against Methicillin-resistant Staphylococcus aureus incubated for 24 hrs by broth microdilution method
# [17] = system: Staphylococcus aureus; assay: Antibacterial activity against Methicillin-resistant Staphylococcus aureus KU60
compound,measurement,setting,value
CC(=O)NC[C@H]1CN(c2ccc(-n3cc(-c4ccccn4)nn3)c(F)c2)C(=O)O1,MIC,[1],0.5 µg/mL
same,Ratio,[2],4
same,MIC,[3],2 µg/mL
C#CCOCCOCCOCc1cn([C@H](CC(C)C)C(=O)N[C@@H]2Cc3ccc(c(Cl)c3)Oc3cc4cc(c3O[C@@H]3O[C@H](CO)[C@@H](O)[C@H](O)[C@H]3O[C@H]3C[C@](C)(NCCCCCCCc5ccccc5)[C@H](O)[C@H](C)O3)Oc3ccc(cc3Cl)[C@@H](O)[C@@H]3NC(=O)[C@H](NC(=O)[C@@H]4NC(=O)[C@H](CC(=O)O)NC2=O)c2ccc(O)c(c2)-c2c(O)cc(O)cc2[C@H](C(=O)O)NC3=O)nn1,MIC,[4],25 µg/mL
same,MIC,[5],12.5 µg/mL
c1ccc(SCn2cc(COc3ccc(-c4nc5cc(C6=NCCN6)ccc5[nH]4)cc3)nn2)cc1,MIC,[6],8 µg/mL
same,Ratio,[7],0.125
NC[C@@H]1O[C@H](O[C@H]2[C@@H](O)[C@H](O[C@@H]3[C@@H](O)[C@H](N)C[C@H](N)[C@H]3O[C@H]3O[C@H](CN)[C@@H](O)[C@H](O)[C@H]3N)O[C@@H]2CO)[C@H](N)[C@@H](O)[C@@H]1O [FRAMYCETIN],MIC,[8],> 50 µg/mL
same,MIC,[9],> 50 µg/mL
same,MIC,[10],> 50 µg/mL
same,MIC,[11],> 50 µg/mL
same,MIC,[12],> 50 µg/mL
CC(=O)NC[C@H]1CN(c2ccc(-n3cc(-c4ccncn4)nn3)c(F)c2)C(=O)O1,MIC,[1],0.5 µg/mL
same,Ratio,[2],4
same,MIC,[3],2 µg/mL
COc1c(N2C[C@@H]3CCCN[C@@H]3C2)c(F)cc2c(=O)c(C(=O)O)cn(C3CC3)c12 [MOXIFLOXACIN],MIC,[13],8 µg/mL
CC(=O)NC[C@H]1CN(c2ccc(-n3cc(-c4ncccn4)nn3)c(F)c2)C(=O)O1,MIC,[1],0.5 µg/mL
same,Ratio,[2],4
same,MIC,[3],2 µg/mL
NC[C@@H]1O[C@H](O[C@H]2[C@@H](O)[C@H](O[C@@H]3[C@@H](O)[C@H](N)C[C@H](N)[C@H]3O[C@H]3O[C@H](CN)[C@@H](O)[C@H](O)[C@H]3N)O[C@@H]2Cn2cc(COCCCCCCCCOCc3cn(C[C@H]4O[C@@H](O[C@@H]5[C@@H](O)[C@H](N)C[C@H](N)[C@H]5O[C@H]5O[C@H](CN)[C@@H](O)[C@H](O)[C@H]5N)[C@H](O)[C@@H]4O[C@H]4O[C@@H](CN)[C@@H](O)[C@H](O)[C@H]4N)nn3)nn2)[C@H](N)[C@@H](O)[C@@H]1O,MIC,[8],25 µg/mL
same,MIC,[9],25 µg/mL
same,MIC,[10],25 µg/mL
same,MIC,[11],25 µg/mL
same,MIC,[12],25 µg/mL
COc1cc(/C=C/c2ccc(OCc3cn(-c4ccc(C(=O)O)cc4)nn3)cc2)cc(OC)c1,MIC,[14],1.2 µg/mL
same,MBC,[15],19.5 µg/mL
Cc1ccc(-n2cc(Cn3c4ccccc4c(=O)c4cc(C)ccc43)nn2)cc1,MIC,[16],19.6 µg/mL
COc1cc(/C=C/c2ccc(O)cc2)cc(OC)c1 [PTEROSTILBENE],MIC,[14],41 µg/mL
same,MBC,[15],41 µg/mL
CC(C)NC(=N)c1ccc2[nH]c(-c3ccc(OCc4cn(CSc5ccccc5)nn4)cc3)nc2c1,MIC,[6],8 µg/mL
same,Ratio,[7],0.125
CC(C)(C)C(=O)N1CCN(c2ccc(N3C[C@H](Cn4ccnn4)OC3=O)cc2F)CC1,MIC,[17],0.25 µg/mL
